Assay results: patent publication US20240317721A1, “PYRAZOLYL DERIVATIVES AS INHIBITORS OF THE KRAS MUTANT PROTEIN” (NOVARTIS AG, priority 2021, published 2024)

molecular target: KRasG12C (M1-K169, biotinylated on the N-terminus) (Homo sapiens (Human), UniProt P01116, G12C); assay: Covalent competition assay: scintillation proximity assay (SPA) quantifying covalent modification of KRASG12C; format: binding; conditions: competition with radiolabeled covalent probe (Compound B/Compound A), 2 hours incubation, 10 nM KRasG12C
Summary of the method: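 Scintillation proximity readout after streptavidin bead capture (30 min) of biotinylated KRasG12C(M1-K169):GDP, 10 nM final, which was covalently labelled over 2 h by 25 nM radio-probe plus 475 nM cold probe unless blocked by compound.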

Going from C=CC(=O)N1CC2(CC(n3nc(N4CCN(C(C)=O)C[C@]4(C)CC)c(-c4c(Cl)c(C)cc5[nH]ncc45)c3C)C2)C1 (single isomer, unassigned) [Example 121a] to C=CC(=O)N1CC2(CC(n3nc(N4CCN(C[C@@H]5COCCO5)C[C@]4(C)CC)c(-c4c(Cl)c(C)cc5[nH]ncc45)c3C#N)C2)C1 [Example 176, 3-((S)-4-(((R)-1,4-dioxan-2-yl)methyl)-2-ethyl-2-methylpiperazin-1-yl)-1-(2-acryloyl-2-azaspiro[3.3]heptan-6-yl)-4-(5-chloro-6-methyl-1H-indazol-4-yl)-1H-pyrazole-5-carbonitrile], the IC50 falls from over 5000 nM to under 5 nM.

Going from C=CC(=O)N1CC2(CC(n3nc(N4CCN(C(C)=O)C[C@]4(C)CC)c(-c4c(Cl)c(C)cc5[nH]ncc45)c3C)C2)C1 (single isomer, unassigned) [Example 121b] to C=CC(=O)N1CC2(CC(n3nc(N4CCN(C5COC5)CC45CCOC5)c(-c4c(Cl)c(C)cc5[nH]ncc45)c3C)C2)C1 (centres unmarked) [Example 141a, 1-(6-(4-(5-chloro-6-methyl-1H-indazol-4-yl)-5-methyl-3-(9-(oxetan-3-yl)-2-oxa-6,9-diazaspiro[4.5]decan-6-yl)-1H-pyrazol-1-yl)-2-azaspiro[3.3]heptan-2-yl)prop-2-en-1-one], the IC50 rises from 8 nM to over 5000 nM. The first is the more potent here.

Going from C=CC(=O)N1CC2(CC(n3nc(N4CCN(C[C@@H]5COCCO5)C[C@]4(C)CC)c(-c4c(O)cccc4Cl)c3C)C2)C1 [Example 111, 1-(6-(3-((S)-4-(((R)-1,4-dioxan-2-yl)methyl)-2-ethyl-2-methylpiperazin-1-yl)-4-(2-chloro-6-hydroxyphenyl)-5-methyl-1H-pyrazol-1-yl)-2-azaspiro[3.3]heptan-2-yl)prop-2-en-1-one] to C=CC(=O)N1CC2(CC(n3nc(N4CCN(C5COC5)CC45CCOC5)c(-c4c(Cl)c(C)cc5[nH]ncc45)c3C)C2)C1 (centres unmarked) [Example 142b, 1-(6-(4-(5-chloro-6-methyl-1H-indazol-4-yl)-5-methyl-3-(9-(oxetan-3-yl)-2-oxa-6,9-diazaspiro[4.5]decan-6-yl)-1H-pyrazol-1-yl)-2-azaspiro[3.3]heptan-2-yl)prop-2-en-1-one], the IC50 rises from 1700 nM to over 5000 nM. The first is the more potent here.

Compared with C=CC(=O)N1CC2(CC(n3nc(N4CCN(C5COC5)C5COCC54)c(-c4c(Cl)c(C)cc5[nH]ncc45)c3C)C2)C1 (stereo not drawn) [Example 136b, 1-(6-(4-(5-chloro-6-methyl-1H-indazol-4-yl)-5-methyl-3-((4aS*,7aS*)-4-(oxetan-3-yl)hexahydrofuro[3,4-b]pyrazin-1(2H)-yl)-1H-pyrazol-1-yl)-2-azaspiro[3.3]heptan-2-yl)prop-2-en-1-one], Cc1cc2[nH]ncc2c(-c2c(N3CCN(C4COC4)CC34CCC4)nn(C3CC4(C3)CN(C(=O)[C@@H]3CO3)C4)c2C)c1Cl [Example 139, (S)-(6-(4-(5-chloro-6-methyl-1H-indazol-4-yl)-5-methyl-3-(8-(oxetan-3-yl)-5,8-diazaspiro[3.5]nonan-5-yl)-1H-pyrazol-1-yl)-2-azaspiro[3.3]heptan-2-yl)(oxiran-2-yl)methanone] is lower in IC50: over 5000 nM for the first, 450 nM for the second. The second is the more potent here.

Going from C=CC(=O)N1CC2(CC(n3nc(N4CCN(C5COC5)C5COCC54)c(-c4c(Cl)c(C)cc5[nH]ncc45)c3C)C2)C1 (stereo not drawn) [Example 137a, 1-(6-(4-(5-chloro-6-methyl-1H-indazol-4-yl)-5-methyl-3-((4aS*,7aS*)-4-(oxetan-3-yl)hexahydrofuro[3,4-b]pyrazin-1(2H)-yl)-1H-pyrazol-1-yl)-2-azaspiro[3.3]heptan-2-yl)prop-2-en-1-one] to C=CC(=O)N1CC2(CC(n3nc(N4CCN(CC(C)(C)O)CC45CCC5)c(-c4c(OC)c(Cl)cc5[nH]ncc45)c3C)C2)C1 [Example 168, 1-(6-(4-(6-chloro-5-methoxy-1H-indazol-4-yl)-3-(8-(2-hydroxy-2-methylpropyl)-5,8-diazaspiro[3.5]nonan-5-yl)-5-methyl-1H-pyrazol-1-yl)-2-azaspiro[3.3]heptan-2-yl)prop-2-en-1-one], the IC50 falls from over 5000 nM to 302 nM. The second is the more potent here.

C=CC(=O)N1CC2(CC(n3cc(-c4c(Cl)c(C)cc5[nH]ncc45)c(N4CC[C@@H](CN5CCOCC5)CC4(C)C)n3)C2)C1 [Example 223, (R)-1-(6-(4-(5-chloro-6-methyl-1H-indazol-4-yl)-3-(2,2-dimethyl-4-(morpholinomethyl)piperidin-1-yl)-1H-pyrazol-1-yl)-2-azaspiro[3.3]heptan-2-yl)prop-2-en-1-one] was tested, and the IC50 was 600 nM.

molecular target: KRasG12C mutant (Homo sapiens (Human), UniProt P01116, G12C); assay: covalent competition assay; format: binding; conditions: comparison of the two atropisomers; a(R) vs a(S) configuration

With C=CC(=O)N1CC2(CC(n3nc(N4CCN(C(C)=O)C[C@]4(C)CC)c(-c4c(Cl)c(C)cc5[nH]ncc45)c3C)C2)C1 (single isomer, unassigned) [Example 121a] the “relative activity of the atropisomers of a pair in the covalent competition assay” value was “less active atropisomer”.
For C=CC(=O)N1CC2(CC(n3nc(N4CCN(C(C)=O)C[C@]4(C)CC)c(-c4c(Cl)c(C)cc5[nH]ncc45)c3C)C2)C1 (single isomer, unassigned) [Example 121b], the “relative activity of the atropisomers of a pair in the covalent competition assay” value was “most active atropisomer”.

molecular target: KRasG12C (Homo sapiens (Human), UniProt P01116, G12C); assay: MS-based assay assessing % modification of KRasG12C over compound concentrations and time points; format: biochemical; conditions: non-labeled ligand, internally determined, read-out: (kinact/KI)probe, second order rate constant for modification of KRasG12C

C=CC(=O)Nc1ccc(-n2c(C)c(-c3c(C)ccc4[nH]ncc34)c3cccnc32)c(F)c1 [Compound A, N-(3-fluoro-4-(2-methyl-3-(5-methyl-1H-indazol-4-yl)-1H-pyrrolo[2,3-b]pyridin-1-yl)phenyl)acrylamide] gave a kinact/KI of about 5000 M⁻¹ s⁻¹.
